Among the data in ChEMBL document CHEMBL4725281, “Design synthesis and evaluation of novel aldose reductase inhibitors: The case of indolyl-sulfonyl-phenols” (Bioorg Med Chem, 2020) are IC50, Ratio IC50 and inhibition values, retold here.

In experiment [1] the target is Aldo-keto reductase family 1 member B1 (Rattus norvegicus, UniProt P07943). Briefly: Inhibition of Fischer 344 rat eye lens ALR2 using D,L-glyceraldehyde as substrate measured up to 4 mins at 30 degC using NaHCO3/DMSO-dissolved compound by spectrophotometric analysis.
In experiment [2] the target is Aldo-keto reductase family 1 member A1 (Rattus norvegicus, UniProt P51635). Briefly: Inhibition of Fischer 344 rat kidney ALR1 using sodium D-glucuronate as substrate measured up to 4 mins at […] using NaHCO3/DMSO-dissolved compound by spectrophotometric analysis.
Sequence of Aldo-keto reductase family 1 member A1 (P51635 whole entry, looked up): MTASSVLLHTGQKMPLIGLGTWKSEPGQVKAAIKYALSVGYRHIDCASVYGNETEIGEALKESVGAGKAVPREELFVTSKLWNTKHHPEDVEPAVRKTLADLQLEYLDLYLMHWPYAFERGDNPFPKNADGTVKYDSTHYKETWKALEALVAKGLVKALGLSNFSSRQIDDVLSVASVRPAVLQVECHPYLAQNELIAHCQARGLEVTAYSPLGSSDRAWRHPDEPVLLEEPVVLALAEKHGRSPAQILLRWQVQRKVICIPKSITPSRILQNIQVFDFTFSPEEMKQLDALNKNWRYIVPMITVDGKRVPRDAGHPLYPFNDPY
For the next experiment, the species on record is Rattus norvegicus. Nature of the experiment: Selectivity index, ratio of IC50 for Fischer 344 rat kidney ALR1 using sodium D-glucuronate as substrate measured up to 4 mins at 30 degC to IC50 for Fischer 344 rat eye lens ALR2 using D,L-glyceraldehyde as substrate measured up to 4 mins at 30 degC. To be noted: time min <=4.
Experiment [3] addresses Aldo-keto reductase family 1 member B1 (Rattus norvegicus) (UniProt P07943). Briefly: Inhibition of Fischer 344 rat eye lens ALR2 using D,L-glyceraldehyde as substrate measured up to 4 mins at 30 degC NaHCO3/DMSO-dissolved compound at 100 uM by spectrophotometric analysis relative to control. The conditions noted are these: time min <=4.

Turning to `O=S(=O)(c1ccc(O)cc1)n1ccc2ccccc21`, the IC50 (as a rule, the midpoint of a concentration-inhibition curve) in experiment [1] is 4.51 µM; in experiment [2], 4.73 µM. For the same compound, in the experiment listed under Rattus norvegicus, the Ratio IC50 is 1.05.

On to `O=S(=O)(c1cc2ccccc2[nH]1)c1ccccc1O`, for which the inhibition (as a rule, the share of the control response that was lost under treatment) in experiment [3] was 12.3%.

In experiment [3], `O=S(=O)(c1ccccc1O)c1c[nH]c2ccccc12` registered an inhibition of 14.6%.

As for `O=S(=O)(c1ccc(O)c(F)c1)n1ccc2ccccc21`, the IC50 in experiment [1] was determined as 0.98 µM; in experiment [2] it was 11.7 µM. Besides, in the experiment filed under Rattus norvegicus, the Ratio IC50 turned out to be 11.9.

`O=S(=O)(c1ccccc1O)n1ccc2ccccc21` registered a 50% inhibitory concentration (IC50) in experiment [1] of 14.2 µM.

The compound `O=S(=O)(c1ccc(O)cc1)c1cc2ccccc2[nH]1` gave an IC50 in experiment [1] of 37.3 µM.

In the case of `O=S(=O)(c1ccc(O)cc1)c1c[nH]c2ccccc12`, the midpoint of inhibition in experiment [1], the IC50, lay at 59.6 µM.
